From patent US6605639B1, “Ligands of nuclear receptor” (Nuclear Receptor Research, Ltd., priority 1998, dated 2003)
Converted amounts (≈) assume the structure as drawn. “And” between values parts separate entries of the source, which are not always exact repeats. Equal values may be shown once.

Legend:
Japanese quails = experiment: Inhibition of arteriosclerosis in Japanese quails fed 1% cholesterol feed; assay type: in vivo, Japanese quail; set-up: key to Atheroma formation in arcuate aorta, grade of individual birds: 0: no atheroma.; I: coated with atheroma at a ratio of 1 to 10% of the total area.; II: coated with atheroma at a ratio of 11 to 40% of the total area.; III: coated with atheroma at a ratio of 41 to 70% of the total area.; IV: coated with atheroma at a ratio of 71 to 100% of the total area; conditions: 9 months; for Atheroma formation in arcuate aorta, grade of individual birds: individuals I-VIII; for decrease of serum cholesterol level / decrease of serum neutral fat level: vs high cholesterol feed control; for Serum neutral fat / Serum total cholesterol: Mean ± SE
Description: When fed with a high fat diet, birds also show the onset of arteriosclerosis within a short period of time. Then 32 adult Japanese quails aged about 30 days were divided into 4 groups at random. […] The feed was prepared by adding 1% of cholesterol to a powdery protein-rich standard fed for chick and molding the mixture into pellets. Compound-6 was added in an amount of 0.16% or 0.0025% to the powdery feed and then the mixture was molded into pellets. The experiment was carried out for 9 months. During this period, the birds were allowed to take the feed and drinking water ad libitum. The feed employed in this experiment contained less fat, compared with the feed employed in the experiments with white rabbits, and was free from bile acid promoting the absorption of cholesterol from the digestive tract.
After 9 months, blood was collected and the serum total cholesterol level and the neutral fat level were measured. […] Each bird was dissected and the aorta was taken out. Then the severity was scored in 5 grades based on the ratio of atheroma to the total endosporium area and thickening of the arterial wall.

male Wistar rats = experiment: Sterol balance and bile acid excretion in rats; assay type: in vivo, rat; conditions: 10 mg/kg oral once a day
Description: Feed-origin cholesterol and neutral sterol and acidic sterol in the feces of rats, to which the compounds of the present invention had been administered, were determined to monitor sterol balance and changes in the bile acid composition in feces. […] Further, the bile was sampled with the passage of time from rats having been subjected to cholangiostomy and bile acids thereof were determined. […] Male Wistar rats weighting about 250 g were divided into groups each having 6 to 8 animals. […] […] The feces were collected on the days 6 and 10. Then sterols were extracted therefrom in a conventional manner, acidic sterols and neutral sterols were determined. On the other hand, cholesterol in the feed was also determined so as to calculate the amount of feed-origin sterol.

[1] = tested on: patients suffered from noninsulin dependent diabetes (type II); experiment: Phase II clinical test; assay type: in vivo, human; conditions: for Fasting blood glucose level, Decrease / Serum total cholesterol level, Decrease / Fasting blood glucose level / Serum total cholesterol level: 360 mg/day; for Fasting blood glucose level / Serum total cholesterol level: n = 30, Mean ± SE; for Boredom No, number of patients / Boredom Yes, number of patients: total 15; for Neuralgia No, number of patients / Neuralgia Yes, number of patients: total 16; for Feebleness No, number of patients / Feebleness Yes, number of patients: total 25
Description: A phase II clinical test of Compound-6 involving 30 patients suffered from noninsulin dependent diabetes (type II) was carried out. Compound-6 was administered in a daily dose of 6 mg/kg (i.e., administration of two tablets weighing 60 mg after each meal). The administration was continued for 12 weeks.
The facts clarified by this test are as follows.
The 30 patients with type II diabetes were inquired about thirsty and evaluated in 4 grades, namely, (+++) very strongly thirsty; (++) strongly thirsty; (+) thirsty; and (−) not thirsty. […] The treatment ratio amounted to 100%.

Solubility = assay type: physicochemical
Description: Subsequently, Compound-6 was added to the serum to examine the formation of a Schiff base in vitro. […] When Compound-6 dissolved in dimethyl sulfoxide at a high concentration was added in portions to bovine serum, Compound-6 was dissolved in the serum at a ratio of […] (i.e., 1000-fold) and the serum turned yellow depending on the concentration of Compound-6. When an organic solvent (ethanol, acetonitrile, etc.) was added to this yellow serum, the coloring matter was not dissolved in the organic solvent but precipitated as yellow serum protein. The organic solvent layer contained no Compound-6. However, Compound-6 was quantitatively recovered as an acetonitrile solution by adding acetonitrile containing 1% of acetic acid to this yellow precipitate and allowing the mixture to stand for 1 week. In a reaction between a protein and a drug molecule, there has been taken no consideration into the conversion into a novel compound via the formation of a covalent bond between the drug and serum protein in vivo. However, it is obvious that aldehyde group in the benzene ring of the compounds of the present invention and amino group of serum protein form a Schiff base on the basis of the following facts. (1) The compounds of the present invention cannot be detected by any usual methods from the serum of animals to which the compounds have been administered. (2) The compounds of the present invention are released by adding an acidified organic solvent in a large amount to the serum and allowing to stand at room temperature for about 1 week. (3) When added to serum in vitro, the compounds of the present invention are dissolved at a ratio as high as 1000-fold and can be recovered by the same method as used in recovering the compounds of the present invention from the serum of animals to which the compounds have been administered. (4) The serum of animals, to which the compounds have been administered, or serum containing the compounds of the present invention turns into yellow.

In the case of `COc1c(Cl)c(C)c(C=O)c(O)c1C/C=C(C)/C=C/[C@@]1(C)[C@H](C)CCC(=O)[C@@H]1C` [Compound-6, 4-O-methylASC], the occurrence of atheroma (Japanese quails; High-dose group (0.16%)) is reported as “no atheroma”, the “Atheroma formation in arcuate aorta, grade of individual birds” value (Japanese quails; High-dose group (0.16%)) is reported as 0 and the “Atheroma severity score, Average” value (Japanese quails; High-dose group (0.16%), n = 8) is reported as 0.00 ± 0.00. For the same compound, the “decrease of serum cholesterol level” value (Japanese quails; High-dose group) was 40%, the “decrease of serum neutral fat level” value (Japanese quails; High-dose group) was 40% and the “Serum neutral fat, change vs control” value (Japanese quails; High-dose, 0.16% in feed) was −40.0%. For the same compound, the “Serum total cholesterol, change vs control” value (Japanese quails; High-dose, 0.16% in feed) was −40.4%, the Serum neutral fat (Japanese quails; High-dose, 0.16% in feed) was 392.6 ± 46.5 mg/dL and the Serum total cholesterol (Japanese quails; High-dose, 0.16% in feed) was 1200 ± 136 mg/dL. For the same compound, the “fraction of the birds with atheroma” value (Japanese quails; Low-dose group (0.0025%)) was “½”, the “Atheroma formation in arcuate aorta, grade of individual birds” value (Japanese quails; Low-dose group (0.0025%)) was 0 (4×) and I (coated with atheroma at a ratio of 1 to 10% of the total area.) (4×) and the “decrease of serum cholesterol level” value (Japanese quails; Low-dose group) was 25.5%. The “decrease of serum neutral fat level” value (Japanese quails; Low-dose group) was 21.6%, the “Serum neutral fat, change vs control” value (Japanese quails; Low-dose, 0.0025% in feed) was −21.6% and the “Serum total cholesterol, change vs control” value (Japanese quails; Low-dose, 0.0025% in feed) was −25.5%. It also gave a Serum neutral fat (Japanese quails; Low-dose, 0.0025% in feed) of 513.1 ± 39.2 mg/dL, a Serum total cholesterol (Japanese quails; Low-dose, 0.0025% in feed) of 1499 ± 120 mg/dL and a Serum total cholesterol (male Wistar rats; Standard feed) of 65.0 ± 2.98 mg/dL. For the same compound, the “Sterol Excretion” value (male Wistar rats; Standard feed) was 10.81 mg/200 g wt, the Sterol balance (male Wistar rats; Standard feed) was -2.26 mg and the Serum total cholesterol (male Wistar rats; feed containing cholesterol) was 77.0 ± 2.19 mg/dL. For the same compound, the “Sterol Excretion” value (male Wistar rats; feed containing cholesterol) was 275.52 mg/200 g wt, the Sterol balance (male Wistar rats; feed containing cholesterol) was “+25.93 mg” and the “Fasting blood glucose level, Decrease” value ([1]; 4th week) was 12.37%. The “Serum total cholesterol level, Decrease” value ([1]; 4th week) was 16.6%, the “Fasting blood glucose level” value ([1]; 4th week) was 165 ± 4.3 mg/dL and the “Serum total cholesterol level” value ([1]; 4th week) was 265 ± 4.4 mg/dL. The “Boredom No, number of patients” value ([1]; 4th week) was 5, the “Boredom Yes, number of patients” value ([1]; 4th week) was 10 and the “Neuralgia No, number of patients” value ([1]; 4th week) was 9. The “Neuralgia Yes, number of patients” value ([1]; 4th week) was 7, the “Feebleness No, number of patients” value ([1]; 4th week) was 10 and the “Feebleness Yes, number of patients” value ([1]; 4th week) was 15. For the same compound, the “Fasting blood glucose level, Decrease” value ([1]; 8th week) was 15.45%, the “Serum total cholesterol level, Decrease” value ([1]; 8th week) was 24.3% and the “Fasting blood glucose level” value ([1]; 8th week) was 159 ± 2.4 mg/dL. For the same compound, the “Serum total cholesterol level” value ([1]; 8th week) was 240 ± 4.4 mg/dL, the “Boredom No, number of patients” value ([1]; 8th week) was 13 and the “Boredom Yes, number of patients” value ([1]; 8th week) was 2. The “Neuralgia No, number of patients” value ([1]; 8th week) was 10, the “Neuralgia Yes, number of patients” value ([1]; 8th week) was 6 and the “Feebleness No, number of patients” value ([1]; 8th week) was 19. The “Feebleness Yes, number of patients” value ([1]; 8th week) was 6, the “Fasting blood glucose level, Decrease” value ([1]; 12th week) was 18.05% and the “Serum total cholesterol level, Decrease” value ([1]; 12th week) was 27.2%. The “Fasting blood glucose level” value ([1]; 12th week) was 154 ± 4.4 mg/dL, the “Serum total cholesterol level” value ([1]; 12th week) was 231 ± 4.4 mg/dL and the “Boredom No, number of patients” value ([1]; 12th week) was 15. For the same compound, the “Boredom Yes, number of patients” value ([1]; 12th week) was 0, the “Neuralgia No, number of patients” value ([1]; 12th week) was 14 and the “Neuralgia Yes, number of patients” value ([1]; 12th week) was 2. For the same compound, the “Feebleness No, number of patients” value ([1]; 12th week) was 24, the “Feebleness Yes, number of patients” value ([1]; 12th week) was 1 and the “thirst, treatment ratio” value ([1]; 30 patients, 12 weeks) was 100%. The “glucose tolerance (50 g of glucose orally loaded, fasting)” value ([1]; compared with the data before the administration) was “significantly ameliorated”, the “blood pressure of patients with hypertension (7) or borderline hypertension (17)” value ([1]; human, in vivo) was “significantly lowered” and the “lowering the serum neutral fat level” value ([1]; human, in vivo) was “little effect”. The “urinary glucose, urine collected for 24 hours” value ([1]; human, in vivo) was “significantly reduced”, the dissolved in bovine serum at a ratio of (Solubility; added in portions from dimethyl sulfoxide solution) was 800 µg/mL and the “solubility in serum relative to PBS” value (Solubility; bovine serum) was 1000 fold. The solubility (Solubility; phosphate buffer saline (PBS)) was 0.8 µg/mL (≈ 1.91 µM).
